{"source": "patent EP1734039A1", "about": "“Aryl urea compounds as BETA-secretase inhibitors” (Esbatech AG, priority 2005, dated 2006)", "key": {"Aβ1-40 secretion": {"test_system": "Aβ1-40 secretion", "test": "Aβ1-40 (Sw) bioassay (cell-based, ELISA)", "details": "for IC50: Homo sapiens, concentration that reduces Aβ1-40 secretion to 50 %, supernatant of Swedish APP695 transgenic HEK293 cells", "text": "(§1) The tests performed were a) Aβ1-40 (Sw) bioassay, which measures the amount of the amyoid peptide Aβ1-40 in the supernatant of Swedish APP695 transgenic HEK293 cells in the presence of the various BACE inhibitors via ELISA (enzyme-linked immunosorbent assay). […] A SEAP-APP(Sw)695 fusion protein is transiently expressed in HEK293 cells in the presence of the various BACE inhibitors. Secretion of the SEAP moiety upon cleavage at the APP β-site is quantitated via a luminescence readout. […] The compounds were docked with the FFLD approach (Budin et al., Biol. Chem. 382, 1365-1372, 2001) and their binding energy was evaluated with the LIECE method (Huang and Caflisch, J. Med. Chem. 47, 5791-5797, 2004). The affinity evaluated with LIECE is in the low micromolar range for most of these compounds."}, "[1]": {"test_system": "SEAP-APP(Sw)695 fusion protein", "test": "SEAP bioassay (cell-based, luminescence readout)", "details": "transiently transfected HEK293 cells; for IC50: Homo sapiens, concentration that reduces secreted SEAP activity to 50 %", "text": "as §1"}, "recombinant BACE enzyme": {"target": "recombinant BACE enzyme (Homo sapiens, UniProt P56817)", "sequence (P56817 46-501)": "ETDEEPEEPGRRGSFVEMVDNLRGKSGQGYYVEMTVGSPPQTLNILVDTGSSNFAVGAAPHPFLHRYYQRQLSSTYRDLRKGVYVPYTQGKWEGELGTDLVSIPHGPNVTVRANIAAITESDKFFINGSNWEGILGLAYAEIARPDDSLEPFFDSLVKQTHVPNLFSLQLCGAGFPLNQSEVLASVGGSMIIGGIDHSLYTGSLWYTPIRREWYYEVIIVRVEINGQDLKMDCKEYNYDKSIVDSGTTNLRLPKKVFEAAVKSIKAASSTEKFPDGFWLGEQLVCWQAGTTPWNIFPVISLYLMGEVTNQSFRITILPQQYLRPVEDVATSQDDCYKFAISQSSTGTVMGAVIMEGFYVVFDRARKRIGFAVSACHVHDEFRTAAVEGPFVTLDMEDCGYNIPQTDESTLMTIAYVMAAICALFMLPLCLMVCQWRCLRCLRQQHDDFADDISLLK", "test": "FRET assay (in vitro)", "format": "biochemical", "details": "for IC50: concentration that reduces the activity of BACE to 50 %"}}, "data": [{"smiles": "CN(C)c1ccc(NC(=O)Nc2cc(C(F)(F)F)cc(C(F)(F)F)c2)cc1C(=O)NCCCN1CCOCC1", "note": "[Compound A1]", "values": [{"measurement": "IC50", "setting": "Aβ1-40 secretion", "result": 3, "unit": "µM"}, {"measurement": "IC50", "setting": "[1]", "result": 3.5, "unit": "µM"}]}, {"smiles": "COCCCNC(=O)c1cc(NC(=O)Nc2cc(C(F)(F)F)cc(C(F)(F)F)c2)ccc1N(C)C", "note": "[Compound A2]", "values": [{"measurement": "IC50", "setting": "Aβ1-40 secretion", "result": 3.2, "unit": "µM"}, {"measurement": "IC50", "setting": "recombinant BACE enzyme", "result": 284, "unit": "µM"}, {"measurement": "% reduction of secreted SEAP activity", "setting": "[1]; at 3 µM", "result": "27 (3 µM) %"}]}, {"smiles": "CCOCCCNC(=O)c1cc(NC(=O)Nc2cccc(Cl)c2)ccc1N(C)C", "note": "[Compound A3]", "values": [{"measurement": "IC50", "setting": "Aβ1-40 secretion", "result": 2.6, "unit": "µM"}, {"measurement": "% reduction of secreted SEAP activity", "setting": "[1]; at 3 µM", "result": "23 (3 µM) %"}]}, {"smiles": "COCCCNC(=O)c1cc(NC(=O)Nc2cccc(OC)c2)ccc1N(C)C", "note": "[Compound A4]", "values": [{"measurement": "IC50", "setting": "Aβ1-40 secretion", "result": 7.5, "unit": "µM"}, {"measurement": "% reduction of the activity of BACE", "setting": "recombinant BACE enzyme; at 100 µM", "result": "33 (100 µM) %"}, {"measurement": "% reduction of secreted SEAP activity", "setting": "[1]; at 6 µM", "result": "21 (6 µM) %"}]}, {"smiles": "CCCNC(=O)c1cc(NC(=O)Nc2cccc(OC)c2)ccc1N(C)C", "note": "[Compound A5]", "values": [{"measurement": "IC50", "setting": "Aβ1-40 secretion", "result": 14.3, "unit": "µM"}, {"measurement": "% reduction of the activity of BACE", "setting": "recombinant BACE enzyme; at 100 µM", "result": "16 (100 µM) %"}, {"measurement": "% reduction of secreted SEAP activity", "setting": "[1]; at 6 µM", "result": "0 (6 µM) %"}]}, {"smiles": "Cc1ccc(NC(=O)Nc2ccc(N(C)C)c(C(=O)NCCCN3CCOCC3)c2)cc1C", "note": "[Compound A6]", "values": [{"measurement": "IC50", "setting": "Aβ1-40 secretion", "result": 23, "unit": "µM"}, {"measurement": "% reduction of the activity of BACE", "setting": "recombinant BACE enzyme; at 100 µM", "result": "21 (100 µM) %"}, {"measurement": "% reduction of secreted SEAP activity", "setting": "[1]; at 12.5 µM", "result": "19 (12.5 µM) %"}]}, {"smiles": "COCCNC(=O)c1cc(NC(=O)Nc2cccc(C)c2)ccc1N(C)C", "note": "[Compound A7]", "values": [{"measurement": "IC50", "setting": "Aβ1-40 secretion", "result": 12.9, "unit": "µM"}, {"measurement": "% reduction of the activity of BACE", "setting": "recombinant BACE enzyme; at 100 µM", "result": "0 (100 µM) %"}, {"measurement": "% reduction of secreted SEAP activity", "setting": "[1]; at 12.5 µM", "result": "0 (12.5 µM) %"}]}, {"smiles": "Cc1cccc(NC(=O)Nc2ccc(N(C)C)c(C(=O)NCCc3ccccc3)c2)c1", "note": "[Compound A8]", "values": [{"measurement": "IC50", "setting": "Aβ1-40 secretion", "result": 5.6, "unit": "µM"}, {"measurement": "% reduction of the activity of BACE", "setting": "recombinant BACE enzyme; at 100 µM", "result": "35 (100 µM) %"}, {"measurement": "% reduction of secreted SEAP activity", "setting": "[1]; at 3 µM", "result": "14 (3 µM) %"}]}, {"smiles": "COCCCNC(=O)c1cc(NC(=O)Nc2ccc(Cl)c(Cl)c2)ccc1N(C)C", "note": "[Compound A9]", "values": [{"measurement": "IC50", "setting": "Aβ1-40 secretion", "result": 5.9, "unit": "µM"}, {"measurement": "IC50", "setting": "recombinant BACE enzyme", "result": 46, "unit": "µM"}, {"measurement": "% reduction of secreted SEAP activity", "setting": "[1]; at 3 µM", "result": "17 (3 µM) %"}]}, {"smiles": "COc1cc(NC(=O)Nc2ccc(N(C)C)c(C(=O)NCc3ccc(F)cc3)c2)cc(OC)c1", "note": "[Compound A10]", "values": [{"measurement": "IC50", "setting": "Aβ1-40 secretion", "result": 3.1, "unit": "µM"}, {"measurement": "IC50", "setting": "recombinant BACE enzyme", "result": 64, "unit": "µM"}, {"measurement": "% reduction of secreted SEAP activity", "setting": "[1]; at 1.6 µM", "result": "10 (1.6 µM) %"}]}, {"smiles": "CCCNC(=O)c1cc(NC(=O)Nc2ccc(CC)cc2)ccc1N(C)C", "note": "[Compound A11]", "values": [{"measurement": "IC50", "setting": "Aβ1-40 secretion", "result": 5.2, "unit": "µM"}, {"measurement": "% reduction of the activity of BACE", "setting": "recombinant BACE enzyme; at 200 µM", "result": "20 (200 µM) %"}, {"measurement": "% reduction of secreted SEAP activity", "setting": "[1]; at 6 µM", "result": "0 (6 µM) %"}]}, {"smiles": "CN(C)c1ccc(NC(=O)Nc2cc(C(F)(F)F)cc(C(F)(F)F)c2)cc1C(=O)NCc1ccc(F)cc1", "note": "[Compound A12]", "values": [{"measurement": "IC50", "setting": "Aβ1-40 secretion", "result": 4.2, "unit": "µM"}, {"measurement": "IC50", "setting": "recombinant BACE enzyme", "result": 131, "unit": "µM"}, {"measurement": "% reduction of secreted SEAP activity", "setting": "[1]; at 1.6 µM", "result": "14 (1.6 µM) %"}]}, {"smiles": "COCCCNC(=O)c1cc(NC(=O)Nc2cccc(Br)c2)ccc1N(C)C", "note": "[Compound A13]", "values": [{"measurement": "IC50", "setting": "Aβ1-40 secretion", "result": 3.8, "unit": "µM"}, {"measurement": "% reduction of the activity of BACE", "setting": "recombinant BACE enzyme; at 100 µM", "result": "37 (100 µM) %"}, {"measurement": "% reduction of secreted SEAP activity", "setting": "[1]; at 3 µM", "result": "25 (3 µM) %"}]}, {"smiles": "CCOCCCNC(=O)c1cc(NC(=O)Nc2ccccc2Br)ccc1N(C)C", "note": "[Compound A14]", "values": [{"measurement": "IC50", "setting": "Aβ1-40 secretion", "result": 7.8, "unit": "µM"}, {"measurement": "% reduction of the activity of BACE", "setting": "recombinant BACE enzyme; at 100 µM", "result": "0 (100 µM) %"}, {"measurement": "% reduction of secreted SEAP activity", "setting": "[1]; at 6 µM", "result": "0 (6 µM) %"}]}, {"smiles": "Cc1cc(C)cc(NC(=O)NCc2nnc(SCc3ccccc3)n2C)c1", "note": "[Compound B1]", "values": [{"measurement": "IC50", "setting": "Aβ1-40 secretion", "result": 18, "unit": "µM"}, {"measurement": "% reduction of the activity of BACE", "setting": "recombinant BACE enzyme; at 500 µM", "result": "0 (500 µM) %"}, {"measurement": "% reduction of secreted SEAP activity", "setting": "[1]; at 50 µM", "result": "0 (50 µM) %"}]}, {"smiles": "CSc1nnc(CCNC(=O)Nc2ccc(Cl)c(C(F)(F)F)c2)n1C(C)C", "note": "[Compound B2]", "values": [{"measurement": "IC50", "setting": "Aβ1-40 secretion", "result": 40, "unit": "µM"}, {"measurement": "% reduction of the activity of BACE", "setting": "recombinant BACE enzyme; at 250 µM", "result": "0 (250 µM) %"}, {"measurement": "% reduction of secreted SEAP activity", "setting": "[1]; at 12.5 µM", "result": "0 (12.5 µM) %"}]}, {"smiles": "CCSc1nsc(NC(=O)Nc2cccc(C(C)=O)c2)n1", "note": "[Compound B3]", "values": [{"measurement": "IC50", "setting": "Aβ1-40 secretion", "result": 1.6, "unit": "µM"}, {"measurement": "IC50", "setting": "[1]", "result": 10, "unit": "µM"}]}, {"smiles": "COc1cccc(NC(=O)Nc2nnc(C(C)Oc3ccccc3)s2)c1", "note": "(stereo not drawn) [Compound B4]", "values": [{"measurement": "IC50", "setting": "Aβ1-40 secretion", "result": 13, "unit": "µM"}, {"measurement": "% reduction of the activity of BACE", "setting": "recombinant BACE enzyme; at 500 µM", "result": "0 (500 µM) %"}, {"measurement": "% reduction of secreted SEAP activity", "setting": "[1]; at 12.5 µM", "result": "0 (12.5 µM) %"}]}, {"smiles": "Cc1cccc(NC(=O)NCC2CCN(c3ccc(S(=O)(=O)N4CCOCC4)cc3)CC2)c1", "note": "[Compound C3]", "values": [{"measurement": "IC50", "setting": "Aβ1-40 secretion", "result": 22, "unit": "µM"}, {"measurement": "% reduction of the activity of BACE", "setting": "recombinant BACE enzyme; at 50 µM", "result": "0 (50 µM) %"}, {"measurement": "% reduction of secreted SEAP activity", "setting": "[1]; at 12.5 µM", "result": "0 (12.5 µM) %"}]}, {"smiles": "CN(C)c1nc(OCCNC(=O)Nc2ccccc2)nc(N2CCCCC2)n1", "note": "[Compound C4]", "values": [{"measurement": "% reduction of Aβ1-40 secretion", "setting": "Aβ1-40 secretion; at 12.5 µM, Swedish APP695 transgenic HEK293 cells", "result": "31 (12.5 µM) %"}, {"measurement": "% reduction of the activity of BACE", "setting": "recombinant BACE enzyme; at 500 µM", "result": "0 (500 µM) %"}, {"measurement": "% reduction of secreted SEAP activity", "setting": "[1]; at 12.5 µM", "result": "0 (12.5 µM) %"}]}, {"smiles": "CCNc1nc(NC(C)(C)C)nc(OCCNC(=O)Nc2ccccc2)n1", "note": "[Compound C5]", "values": [{"measurement": "IC50", "setting": "Aβ1-40 secretion", "result": "10 to 20", "unit": "µM"}, {"measurement": "% reduction of the activity of BACE", "setting": "recombinant BACE enzyme; at 500 µM", "result": "0 (500 µM) %"}, {"measurement": "% reduction of secreted SEAP activity", "setting": "[1]; at 25 µM", "result": "0 (25 µM) %"}]}]}
